Data on 13 compounds can be found in patent US20250034182A1, “PHOSPHOLIPID COMPOUNDS AND METHODS OF MAKING AND USING THE SAME” (priority 2021, published 2025).

Some results are limits rather than exact numbers.

The first experiment concerns CAN97-83-GFP1 (A2a) hMPV in H1-HeLa cells. Briefly: hMPV H1-Hela EC50, anti-nucleoprotein ELISA (Example X). The format is cell-based. Particulars: human metapneumovirus, 96 h, read-out: hMPV H1-Hela EC50 (nM) (per Ex. X). The method, then: The human metapneumoavirus (hMPV) anti-viral assay is an anti-nucleoprotein ELISA performed in infected H1-HeLa cells. H1-HeLa cells were maintained in Dulbecco's Modified Eagle's Medium with high glucose (Gibco, Cat #: 11995073) supplemented with 10% FBS (HyClone, Cat #: SH303396.03), 100 units/mL penicillin and 100 μg/mL streptomycin (Gibco, Cat #: 15140122). One day before infection, H1-HeLa cells were seeded into 96-well plates (Corning, Cat. #: 3903) at 0.1 mL/well at 1.5×10^5 cells/mL in Opti-MEM (Gibco, Cat #: 31985070) supplemented with 2% FBS, and were incubated at 37° C. in a 100% humid atmosphere containing 5% (v/v) CO2 overnight. On the next day, CAN97-83-GFP1 (A2a) hMPV was diluted in Opti-MEM medium containing 200 μg/mL CaCl2) and 2 μg/mL TPCK treated trypsin and distributed to the 96-well plates at 0.1 mL/well for an MOI=0.1. Test compounds were distributed to each well using a HP D300e digital dispenser with a final volume of 200 µL/well. After the plates were centrifuged at 700 g for one hour at room temperature, they were maintained in a humidified chamber at 37-C with 5% (v/v) CO2 for 96 hours. After the incubation, the medium was removed, and the plates were fixed with 0.1 mL/well 1% formaldehyde for 15 min at room temperature. The fixative was removed, the plates were air dried for 30-60 minutes, and then permeabilized with 0.1 mL/well 0.5% Triton X-100 in PBS for five minutes at room temperature. Following permeabilization, the plates were washed once with 0.1 mL/well blocking buffer consisting of 10% FBS (HyClone, Cat #: SH303396.03), 5% dry milk (AmericanBio, Cat #: AB10109-01000), and 0.1% Tween 20 (EMD Millipore, Cat #655204) in PBS. The plates were blocked with 0.1 mL/well blocking buffer for 60 minutes at 37° C. afterward. The blocking buffer was removed and 0.05 mL/well human metapneumovirus nucleocapsid antibody (Sigma, Cat #MAB80121) diluted 1:500 in Blocking buffer was added and incubated for two hours at 37-C. The plates were then washed with 0.2 mL/well 0.1% Tween 20/PBS five times, followed by addition of 0.05 mL/well of horseradish peroxidase (HRP) conjugated goat anti-mouse IgG antibody (Fisher Scientific, Cat #501077607) at 1:2000 dilution in the blocking buffer. After one-hour incubation at 37-C, plates were washed five times with 0.2 mL/well 0.1% tween 20 in PBS. The HRP signals were developed by adding 0.1 mL/well of TMB reagent (Thermo Scientific, Cat #: ENN301) and incubating at room until the positive control was apparent. At that point, the reaction was stopped by adding 0.1 mL/well TMB stop solution (SeraCare, Cat #: 5150-0021). The absorbance was measured at 450 nm with an EnVision plate reader. The relative absorbance was calculated by normalizing the absorbance of the compound-treated groups to that of the DMSO-treated groups (set as 100%). EC50 values were calculated using a nonlinear four parameter variable slope regression model.
Background: ELISA stands for enzyme-linked immunosorbent assay.
Broadly, the EC50 is the midpoint of the concentration-response curve. As to `CCCCCCCCCCCCCCCCCCC[C@H](COP(=O)(O)OC[C@@]1(C#N)O[C@@H](c2ccc3c(N)ncnn23)[C@H](O)[C@@H]1O)OCc1ccc(-n2cncn2)c(C#N)c1` [Compound 30, ((2R,3S,4R)-5-(4-aminopyrrolo[2,1-f][1,2,4]triazin-7-yl)-2-cyano-3,4-dihydroxytetrahydrofuran-2-yl)methyl ((R)-2-((3-cyano-4-(1H-1,2,4-triazol-1-yl)benzyl)oxy)henicosyl) hydrogen phosphate], the EC50 was 188 nM.

Consider `CCCCCCCCCCCCCCCCCCCC[C@H](COP(=O)(O)OC[C@@]1(C#N)O[C@@H](c2ccc3c(N)ncnn23)[C@H](O)[C@@H]1O)OCc1cc(F)cc(C#N)c1` [Compound 34, ((2R,3S,4R)-5-(4-aminopyrrolo[2,1-f][1,2,4]triazin-7-yl)-2-cyano-3,4-dihydroxytetrahydrofuran-2-yl)methyl ((R)-2-((3-cyano-5-fluorobenzyl)oxy)docosyl) hydrogen phosphate], for which the concentration for a half-maximal effect (EC50) is 646 nM. Still for that read-out and setting: for `CCCCCCCCCCCCCCCCCCOC[C@@H](COP(=O)(O)OC[C@@]1(C#N)O[C@@H](c2ccc3c(N)ncnn23)[C@H](O)[C@@H]1O)Oc1ccc(C#N)nc1` [Compound 72, ((2R,3S,4R,5S)-5-(4-aminopyrrolo[2,1-f][1,2,4]triazin-7-yl)-2-cyano-3,4-dihydroxytetrahydrofuran-2-yl)methyl ((S)-2-((6-cyanopyridin-3-yl)oxy)-3-(octadecyloxy)propyl) hydrogen phosphate] the value was 70 nM; for `CCCCCCCCCCCCCCCCC[C@H](COP(=O)(O)OC[C@@]1(C#N)O[C@@H](c2ccc3c(N)ncnn23)[C@H](O)[C@@H]1O)OCc1cc(Cl)cc(C#N)c1` [Compound 76, ((2R,3S,4R)-5-(4-aminopyrrolo[2,1-f][1,2,4]triazin-7-yl)-2-cyano-3,4-dihydroxytetrahydrofuran-2-yl)methyl ((R)-2-((3-chloro-5-cyanobenzyl)oxy)nonadecyl) hydrogen phosphate], 517 nM.

Another experiment deals with Recombinant Respiratory Syncytial virus strain A2 containing the firefly luciferase reporter (RSV-Fluc) in NHBE cells. Nature of the experiment: RSV NHBE FLuc EC50 (Example I). The format is cell-based. The conditions noted are these: human respiratory syncytial virus, 72 h, read-out: RSV NHBE FLuc EC50 (nM) (per Ex. I). From the text:
Normal human bronchial epithelial (NHBE) cells are purchased from Lonza (Walkersville, MD Cat #CC-2540) and maintained in Bronchial Epithelial Cell Growth Medium (BEGM) (Lonza, Walkersville, MD, Cat #CC-3170) with all provided supplements in the BulletKit. Cells are passaged 2-3 times per week to maintain sub-confluent densities and are used for experiments at passages 2-4.
Recombinant Respiratory Syncytial virus strain A2 containing the firefly luciferase reporter between the P and M genes (RSV-Fluc, 6.3×10^6 TCID50/mL) is purchased from Viratree (Durham, NC, Cat #R^145).
NHBE cells (5×10^3/well) are seeded in 100 μL white wall/clear bottom 96-well plates (Corning) with culture medium and are incubated for 24 hours at 37° C. with 5% CO2. On the following day, three-fold serial dilutions of compounds prepared in DMSO are added to the wells using the HP D300e digital dispenser with normalization to the highest concentration of DMSO in all wells. The cells are then infected with RSV-Fluc diluted with BEGM media at an MOI of 0.1 for a final volume of 200 μL media/well. Uninfected and untreated wells are included as controls to determine compound efficacy against RSV-Fluc. Following incubation with compound and virus for three days at 37° C. with 5% CO2, 100 μL of culture supernatant is removed from each well and replaced with 100 μL of ONE-Glo luciferase reagent (Promega, Madison, WI, Cat #E6110). The plates are gently mixed by rocking for 10 minutes at 21° C. and luminescence signal is measured using an Envision plate reader (PerkinElmer). Values are normalized to the uninfected and infected DMSO controls (0% and 100% infection, respectively). Non-linear regression analysis is applied to determine the compound concentration at which 50% luminescence signal is reduced (EC50) using the XLfit4 add-in for MICROSOFT®EXCEL®. All experiments are performed in duplicate with two technical repeats each.
As to `CCCCCCCCCCCCCCCCCCOC[C@H](COP(=O)(O)OC[C@@]1(C#N)O[C@@H](c2ccc3c(N)ncnn23)[C@H](O)[C@@H]1O)OCc1ccc(C#N)c(-n2cncn2)c1` [Compound 16, ((2R,3S,4R,5S)-5-(4-aminopyrrolo[2,1-f][1,2,4]triazin-7-yl)-2-cyano-3,4-dihydroxytetrahydrofuran-2-yl)methyl ((R)-2-((4-cyano-3-(1H-1,2,4-triazol-1-yl)benzyl)oxy)-3-(octadecyloxy)propyl) hydrogen phosphate], the half-maximal effective concentration (EC50) is below 6 nM.

As for `CCCCCCCCCCCCCCCCCCOC[C@H](COP(=O)(O)OC[C@@]1(C#N)O[C@@H](c2ccc3c(N)ncnn23)[C@H](O)[C@@H]1O)OCc1ccc(C#N)nc1` [Compound 19, ((2R,3S,4R,5S)-5-(4-aminopyrrolo[2,1-f][1,2,4]triazin-7-yl)-2-cyano-3,4-dihydroxytetrahydrofuran-2-yl)methyl ((R)-2-((6-cyanopyridin-3-yl)methoxy)-3-(octadecyloxy)propyl) hydrogen phosphate], the EC50 stood at 98 nM. Same read-out and setting: for `CCCCCCCCCCCCCCCCCCOC[C@H](COP(=O)(O)OC[C@@]1(C#N)O[C@@H](c2ccc3c(N)ncnn23)[C@H](O)[C@@H]1O)Oc1cccc(C#N)n1` [Compound 21, ((2R,3S,4R,5S)-5-(4-aminopyrrolo[2,1-f][1,2,4]triazin-7-yl)-2-cyano-3,4-dihydroxytetrahydrofuran-2-yl)methyl ((R)-2-((6-cyanopyridin-2-yl)oxy)-3-(octadecyloxy)propyl) hydrogen phosphate] the value was 41 nM.

For the compound `CCCCCCCCCCCCCCCCCC[C@@H](COP(=O)(O)OC[C@@]1(C#N)O[C@@H](c2ccc3c(N)ncnn23)[C@H](O)[C@@H]1O)OCc1cc(F)cc(C#N)c1` [Compound 37, ((2R,3S,4R)-5-(4-aminopyrrolo[2,1-f][1,2,4]triazin-7-yl)-2-cyano-3,4-dihydroxytetrahydrofuran-2-yl)methyl ((S)-2-((3-cyano-5-fluorobenzyl)oxy)icosyl) hydrogen phosphate], the EC50 amounted to 276 nM. With `CCCCCCCCCCCCCCCCCCCC[C@H](COP(=O)(O)OC[C@@]1(C#N)O[C@@H](c2ccc3c(N)ncnn23)[C@H](O)[C@@H]1O)Oc1cccc(C#N)c1` [Compound 51, ((2R,3S,4R,5S)-5-(4-aminopyrrolo[2,1-f][1,2,4]triazin-7-yl)-2-cyano-3,4-dihydroxytetrahydrofuran-2-yl)methyl ((R)-2-(3-cyanophenoxy)docosyl) hydrogen phosphate], the EC50 amounted to 66 nM.

`CCCCCCCCCCCCCCCCCOC[C@H](COP(=O)(O)OC[C@@]1(C#N)O[C@@H](c2ccc3c(N)ncnn23)[C@H](O)[C@@H]1O)OCc1cc(F)cc(C#N)c1` [Compound 53, ((2R,3S,4R,5S)-5-(4-aminopyrrolo[2,1-f][1,2,4]triazin-7-yl)-2-cyano-3,4-dihydroxytetrahydrofuran-2-yl)methyl ((R)-2-((3-cyano-5-fluorobenzyl)oxy)-3-(heptadecyloxy)propyl) hydrogen phosphate]: the 50% effective concentration (EC50) is 69 nM. `CCCCCCCCCCCCCCOC[C@H](COP(=O)(O)OC[C@@]1(C#N)O[C@@H](c2ccc3c(N)ncnn23)[C@H](O)[C@@H]1O)Oc1cc(C#N)ccn1` [Compound 69, ((2R,3S,4R)-5-(4-aminopyrrolo[2,1-f][1,2,4]triazin-7-yl)-2-cyano-3,4-dihydroxytetrahydrofuran-2-yl)methyl ((R)-2-((4-cyanopyridin-2-yl)oxy)-3-(tetradecyloxy)propyl) hydrogen phosphate]: the EC50 came out at 29 nM. On the same count and under the same terms, for `CCCCCCCCCCCCCCCCCCOC[C@H](COP(=O)(O)OC[C@@]1(C#N)O[C@@H](c2ccc3c(N)ncnn23)[C@H](O)[C@@H]1O)OCc1ccc(C#N)cc1OC` [Compound 73, ((2R,3S,4R)-5-(4-aminopyrrolo[2,1-f][1,2,4]triazin-7-yl)-2-cyano-3,4-dihydroxytetrahydrofuran-2-yl)methyl ((R)-2-((4-cyano-2-methoxybenzyl)oxy)-3-(octadecyloxy)propyl) hydrogen phosphate] the value was 25 nM. `CCCCCCCCCCCCCCOC[C@H](COP(=O)(O)OC[C@@]1(C#N)O[C@@H](c2ccc3c(N)ncnn23)[C@H](O)[C@@H]1O)OCc1ccc(C#N)cc1F` [Compound 75, ((2R,3S,4R,5S)-5-(4-aminopyrrolo[2,1-f][1,2,4]triazin-7-yl)-2-cyano-3,4-dihydroxytetrahydrofuran-2-yl)methyl ((R)-2-((4-cyano-2-fluorobenzyl)oxy)-3-(tetradecyloxy)propyl) hydrogen phosphate]: the EC50 is below 10.9 nM.
